How the values were obtained:
Type in all cases: functional
Candida albicans [1] = assay: Antifungal activity against Candida albicans at 100 ug/ml after 48 to 72 hr by agar well diffusion method; details: read-out: IZ
Pseudomonas aeruginosa [2] = assay: Antibacterial activity against Pseudomonas aeruginosa minced cow meet at 100 ug/ml after 24 hr by agar well diffusion method; details: read-out: IZ
Listeria monocytogenes [3] = assay: Antibacterial activity against Listeria monocytogenes isolated from mastitic cow milk at 100 ug/ml after 24 hr by agar well diffusion method; details: read-out: IZ
Staphylococcus aureus [4] = assay: Antibacterial activity against Staphylococcus aureus isolated from minced cow meet at 100 ug/ml after 24 hr by agar well diffusion method; details: read-out: IZ
Salmonella typhimurium [5] = assay: Antibacterial activity against Salmonella enterica subsp. enterica serovar Typhimurium isolated from mastitic cow milk at 100 ug/ml after 24 hr by agar well diffusion method; details: read-out: IZ
Aspergillus flavus [6] = assay: Antifungal activity against Aspergillus flavus at 100 ug/ml after 48 to 72 hr by agar well diffusion method; details: read-out: IZ
Escherichia coli [7] = assay: Antibacterial activity against Escherichia coli O157:H7 isolated from poultry at 100 ug/ml after 24 hr by agar well diffusion method; details: O157:H7, 24 h, read-out: IZ
Bacillus cereus [8] = assay: Antibacterial activity against Bacillus cereus at 100 ug/ml after 24 hr by agar well diffusion method; details: read-out: IZ
Candida albicans [9] = assay: Antifungal activity against Candida albicans at 25 ug/ml after 48 to 72 hr by agar well diffusion method; details: read-out: IZ
Aspergillus flavus [10] = assay: Antifungal activity against Aspergillus flavus at 25 ug/ml after 48 to 72 hr by agar well diffusion method; details: read-out: IZ
Salmonella typhimurium [11] = assay: Antibacterial activity against Salmonella enterica subsp. enterica serovar Typhimurium isolated from mastitic cow milk at 10 ug/ml after 24 hr by agar well diffusion method; details: read-out: IZ
Listeria monocytogenes [12] = assay: Antibacterial activity against Listeria monocytogenes isolated from mastitic cow milk at 10 ug/ml after 24 hr by agar well diffusion method; details: read-out: IZ
Pseudomonas aeruginosa [13] = assay: Antibacterial activity against Pseudomonas aeruginosa minced cow meet at 10 ug/ml after 24 hr by agar well diffusion method; details: read-out: IZ
Staphylococcus aureus [14] = assay: Antibacterial activity against Staphylococcus aureus minced cow meet at 10 ug/ml after 24 hr by agar well diffusion method; details: read-out: IZ
Bacillus cereus [15] = assay: Antibacterial activity against Bacillus cereus at 10 ug/ml after 24 hr by agar well diffusion method; details: read-out: IZ
Escherichia coli [16] = assay: Antibacterial activity against Escherichia coli O157:H7 isolated from poultry at 10 ug/ml after 24 hr by agar well diffusion method; details: O157:H7, 24 h, read-out: IZ

SMILES | zone of inhibition at 100 µg/mL (Candida albicans [1]) [mm] | zone of inhibition at 100 µg/mL (Pseudomonas aeruginosa [2]) [mm] | zone of inhibition at 100 µg/mL (Listeria monocytogenes [3]) [mm] | zone of inhibition at 100 µg/mL (Staphylococcus aureus [4]) [mm] | zone of inhibition at 100 µg/mL (Salmonella typhimurium [5]) [mm] | zone of inhibition at 100 µg/mL (Aspergillus flavus [6]) [mm] | zone of inhibition at 100 µg/mL (Escherichia coli [7]) [mm] | zone of inhibition at 100 µg/mL (Bacillus cereus [8]) [mm] | zone of inhibition at 25 µg/mL (Candida albicans [9]) [mm] | zone of inhibition at 25 µg/mL (Aspergillus flavus [10]) [mm] | zone of inhibition at 10 µg/mL (Salmonella typhimurium [11]) [mm] | zone of inhibition at 10 µg/mL (Listeria monocytogenes [12]) [mm] | zone of inhibition at 10 µg/mL (Pseudomonas aeruginosa [13]) [mm] | zone of inhibition at 10 µg/mL (Staphylococcus aureus [14]) [mm] | zone of inhibition at 10 µg/mL (Bacillus cereus [15]) [mm] | zone of inhibition at 10 µg/mL (Escherichia coli [16]) [mm]
COc1ccc(C(=O)CSc2nc(-c3ccc(Cl)cc3)c3c(C)nn(-c4ccccc4)c3n2)cc1 | 26 | 18 | 14 | 16 | 13 | 12 | 16 | 18 |  |  |  |  |  |  |  | 
Cc1nn(-c2ccccc2)c2nc(-n3[nH]c(=O)c(C#N)c3-c3cccs3)nc(-c3ccc(Cl)cc3)c12 | 20 | 14 | 32 | 14 | 10 | 12 | 0 | 9 |  |  |  |  |  |  |  | 
Cc1nn(-c2ccccc2)c2c1c(-c1ccc(Cl)cc1)nc1nncn12 | 18 | 12 | 20 | 14 | 13 | 0 | 10 | 22 |  |  |  |  |  |  |  | 
Cc1nn(-c2ccccc2)c2nc(-n3nc(N)c(C#N)c3-c3ccc(Cl)cc3)nc(-c3ccc(Cl)cc3)c12 | 9 | 9 | 18 | 12 | 9 | 0 | 0 | 12 |  |  |  |  |  |  |  | 
Cc1nn(-c2ccccc2)c2c1C(c1ccc(Cl)cc1)n1c(s/c(=C\c3ccc(C#N)cc3)c1=O)=N2 (stereo not drawn) | 9 | 18 | 20 | 28 | 15 | 8 | 18 | 22 |  |  |  |  |  |  |  | 
Cc1nn(-c2ccccc2)c2nc(S)nc(-c3ccc(Cl)cc3)c12 | 29 | 24 | 24 | 18 | 12 | 0 | 0 | 22 |  |  |  |  |  |  |  | 
Cc1nn(-c2ccccc2)c2nc(SCC(=O)Cl)nc(-c3ccc(Cl)cc3)c12 | 8 | 22 | 29 | 14 | 11 | 9 | 9 | 10 |  |  |  |  |  |  |  | 
Cc1nn(-c2ccccc2)c2nc(-n3[nH]c(=O)c(C#N)c3-c3ccc(Cl)cc3)nc(-c3ccc(Cl)cc3)c12 | 24 | 14 | 29 | 0 | 9 | 12 | 0 | 24 |  |  |  |  |  |  |  | 
Cc1nn(-c2ccccc2)c2nc(S)nc(-c3cccs3)c12 | 10 | 16 | 16 | 14 | 14 | 10 | 14 | 18 |  |  |  |  |  |  |  | 
Cc1nn(-c2ccccc2)c2nc(NN)nc(-c3ccc(Cl)cc3)c12 | 16 | 16 | 16 | 16 | 13 | 0 | 10 | 26 |  |  |  |  |  |  |  | 
OC(Cn1cncn1)(Cn1cncn1)c1ccc(F)cc1F [FLUCONAZOLE] |  |  |  |  |  |  |  |  | 17 | 16 |  |  |  |  |  | 
NC[C@H]1O[C@H](O[C@H]2[C@H](O)[C@@H](O[C@H]3O[C@H](CO)[C@@H](O)[C@H](N)[C@H]3O)[C@H](N)C[C@@H]2N)[C@H](N)C[C@@H]1O [TOBRAMYCIN] |  |  |  |  |  |  |  |  |  |  | 18 | 20 | 18 | 19 | 19 | 20

Reference: ChEMBL document CHEMBL3045647, “Synthesis, anti-microbial evaluation, and molecular modeling of new pyrazolo[3,4-d]pyrimidine derivatives” (2012)
